Results published in patent publication US5665586A, “Protease from Streptomyces fradiae” (Shionogi & Co., Ltd., priority 1992, dated 1997).
Like-named read-outs stand apart in the source and are kept apart here. Where a SMILES comes first, the peptide text is derived from it. The star is where a group is joined. pNA = O=[N+]([O-])c1ccc(N*)cc1; Cbz = O=C(OCc1ccccc1)*; Boc = CC(C)(C)OC(=O)*; CH2Cl = ClC*

Key:
SFase [1] = molecular target: T1, SFase (Streptomyces fradiae, UniProt Q03424); experiment: Effect of inhibitors on SFase (residual activity, substrate Z-Phe-Leu-Glu-pNA); assay type: biochemical
SFase [2] = molecular target: T1, SFase; experiment: Substrate specificity of SFase on synthetic pNA substrates (p-nitroaniline release, A410 nm); assay type: biochemical; settings: 50 mM Tris-HCl, 2 mM CaCl2, pH 7.5, 25° C.
Method: 1. […] The present enzyme was added thereto to cause a reaction at a temperature of 25° C. By measuring the absorbance (410 nm) of p-nitroaniline released through the enzymatic reaction into the reaction solution, the amount (A410 nm) of p-nitroaniline released per mg each substrate per 1 minute was calculated.

[3] = pH 7.5, read-out: Residual Activity (%)
[4] = inhibitor 0.5 mM, preincubation 37° C., 1 hour, enzyme 1.0 μg/ml, 0.2 mM Z-Phe-Leu-Glu-pNA, pH 7.5, 25° C., read-out: Residual Activity (%)

T1 sequence (Q03424 171-357): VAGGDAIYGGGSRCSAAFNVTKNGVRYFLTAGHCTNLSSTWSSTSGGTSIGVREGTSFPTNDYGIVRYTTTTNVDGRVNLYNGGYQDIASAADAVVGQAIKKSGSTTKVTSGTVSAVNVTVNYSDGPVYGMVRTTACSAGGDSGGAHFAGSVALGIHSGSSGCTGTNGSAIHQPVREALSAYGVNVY

c1cnc2c(c1)ccc1cccnc12 [OP, o-phenanthroline]
inhibition of SFase (in words) (SFase [1]; Table 2): not inhibited | remaining activity at 100 µM (SFase [1]; inhibitor 0.1 mM, preincubation 37° C., 1 hour, enzyme 1.0 μg/ml, 0.2 mM Z-Phe-Leu-Glu-pNA, pH 7.5, 25° C., read-out: Residual Activity (%)): 106% | remaining activity at 1000 µM (SFase [1]; inhibitor 1.0 mM, preincubation 37° C., 1 hour, enzyme 1.0 μg/ml, 0.2 mM Z-Phe-Leu-Glu-pNA, pH 7.5, 25° C., read-out: Residual Activity (%)): 108% | remaining activity at 10000 µM (SFase [1]; inhibitor 10.0 mM, preincubation 37° C., 1 hour, enzyme 1.0 μg/ml, 0.2 mM Z-Phe-Leu-Glu-pNA, pH 7.5, 25° C., read-out: Residual Activity (%)): 104%

O=C(CNC(=O)OCc1ccccc1)N[C@@H](CO)C(=O)Nc1ccc([N+](=O)[O-])cc1 [Z--Gly--Ser--pNA] (Cbz-Gly-Ser-pNA)
amount (A410 nm) of p-nitroaniline released per mg per 1 minute (SFase [2]; substrate 0.20 mM, DMF 2.0%): 0 A 410 nm /mg/min

Cc1ccc(S(=O)(=O)N[C@@H](CCCCN)C(=O)CCl)cc1 [TLCK, Tosyl-Lys-chloromethylketone]
inhibition of SFase (in words) (SFase [1]): inhibited by neither | remaining activity at 500 µM (SFase [1]; [3]): 112%

O=C(O)CN(CCN(CC(=O)O)CC(=O)O)CC(=O)O [EDTA, ethylenediaminetetraacetic acid]
inhibition of SFase (in words) (SFase [1]): not inhibited | remaining activity at 100 µM (SFase [1]; [3]): 110% | remaining activity at 1000 µM (SFase [1]; [3]): 113% | remaining activity at 10000 µM (SFase [1]; [3]): 126%

O=C(N[C@@H](Cc1c[nH]c2ccccc12)C(=O)Nc1ccc([N+](=O)[O-])cc1)OCc1ccccc1 [Z--Trp--pNA]
amount (A410 nm) of p-nitroaniline released per mg per 1 minute (SFase [2]; substrate 0.20 mM, DMF 2.0%): 0 A 410 nm /mg/min

C[C@H](NC(=O)OC(C)(C)C)C(=O)N[C@@H](C)C(=O)N[C@@H](CCC(=O)O)C(=O)Nc1ccc([N+](=O)[O-])cc1 [Boc--Ala--Ala--Glu--pNA] (Boc-Ala-Ala-Glu-pNA)
amount (A410 nm) of p-nitroaniline released per mg per 1 minute (SFase [2]; substrate 0.20 mM, DMF 2.0%): 126.2 A 410 nm /mg/min

CC(C)C[C@H](NC(=O)[C@H](Cc1ccccc1)NC(=O)OCc1ccccc1)C(=O)N[C@@H](CCC(=O)O)C(=O)CCl [Z--Phe--Leu--Glu--CK] (Cbz-Phe-Leu-Glu-CH2Cl)
remaining activity at 500 µM (SFase [1]; [4]): 0%

N=C(N)NCCC[C@H](NC(=O)c1ccccc1)C(=O)Nc1ccc([N+](=O)[O-])cc1 [Bz--Arg--pNA]
amount (A410 nm) of p-nitroaniline released per mg per 1 minute (SFase [2]; substrate 0.50 mM, DMSO 1.0%): 0 A 410 nm /mg/min

C[C@H](NC(=O)OC(C)(C)C)C(=O)N[C@@H](C)C(=O)N[C@@H](CC(=O)O)C(=O)Nc1ccc([N+](=O)[O-])cc1 [Boc--Ala--Ala--Asp--pNA] (Boc-Ala-Ala-Asp-pNA)
amount (A410 nm) of p-nitroaniline released per mg per 1 minute (SFase [2]; substrate 0.20 mM, DMF 2.0%): 14.3 A 410 nm /mg/min

C[C@H](NC(=O)[C@H](C)NC(=O)[C@H](C)NC(=O)OC(C)(C)C)C(=O)CCl [Boc--Ala--Ala--Ala--CK]
remaining activity at 500 µM (SFase [1]; [4]): 102%

C[C@H](NC(=O)CCC(=O)O)C(=O)N[C@@H](C)C(=O)N[C@@H](C)C(=O)Nc1ccc([N+](=O)[O-])cc1 [Suc--Ala--Ala--Ala--pNA]
amount (A410 nm) of p-nitroaniline released per mg per 1 minute (SFase [2]; substrate 0.20 mM, no solvent): 0 A 410 nm /mg/min

CC(C)C[C@H](NC(=O)[C@H](Cc1ccccc1)NC(=O)OCc1ccccc1)C(=O)N[C@@H](CCC(=O)O)C(=O)Nc1ccc([N+](=O)[O-])cc1 [Z--Phe--Leu--Glu--pNA, Z-Phe-Leu-Glu-pNA] (Cbz-Phe-Leu-Glu-pNA)
amount (A410 nm) of p-nitroaniline released per mg per 1 minute (SFase [2]; substrate 0.20 mM, DMF 0.2%): 319.1 A 410 nm /mg/min

CC(C)C[C@H](NC(=O)[C@H](C)NC(=O)[C@H](C)NC(=O)OCc1ccccc1)C(=O)Nc1ccc([N+](=O)[O-])cc1 [Z--Ala--Ala--Leu--pNA] (Cbz-Ala-Ala-Leu-pNA)
amount (A410 nm) of p-nitroaniline released per mg per 1 minute (SFase [2]; substrate 0.125 mM, DMF 5.0%): 0 A 410 nm /mg/min

CC(C)C[C@H](N)C(=O)Nc1ccc([N+](=O)[O-])cc1 [Leu--pNA]
amount (A410 nm) of p-nitroaniline released per mg per 1 minute (SFase [2]; substrate 2.00 mM, no solvent): 0 A 410 nm /mg/min

O=C(N[C@@H](Cc1ccc(O)cc1)C(=O)Nc1ccc([N+](=O)[O-])cc1)c1ccccc1 [Bz--Tyr--pNA]
amount (A410 nm) of p-nitroaniline released per mg per 1 minute (SFase [2]; substrate 0.02 mM, DMF 2.0%): 0 A 410 nm /mg/min

CC(C)C[C@H](NC(=O)[C@H](Cc1ccccc1)NC(=O)OC(C)(C)C)C(=O)N[C@@H](CCC(=O)O)C(=O)CCl [Boc-Phe-Leu-Glu-chloromethylketone] (Boc-Phe-Leu-Glu-CH2Cl)
inhibition of SFase (in words) (SFase [1]; Table 2): completely inhibited

Cc1ccc(S(=O)(=O)N[C@@H](Cc2ccccc2)C(=O)CCl)cc1 [TPCK, Tosyl-Phe-chloromethylketone]
inhibition of SFase (in words) (SFase [1]; Table 2): inhibited by neither | remaining activity at 500 µM (SFase [1]; [4]): 101%
